The text below walks through data of US20230272357A1, “METHODS OF GENOME EDITING INCLUDING CONTROLLED OPENING OF CHROMATIN” (Wisconsin Alumni Research Foundation, priority 2021, published 2023).

Each structure is given as a SMILES string.

Type in all cases: cell-based, human
Data set [1] has as its system iPSCs. Kind of data set: Cell viability by Ghost Dye Red 780 flow cytometry. On the procedure: Cell viability: Flow cytometry was performed using Ghost Dye™ Red 780 viability dye (Tonbo Biosciences) to determine the dose range of the TSA that can be administrated to the cells without affecting cell viability. iPSCs (15,000 per well) were cultured overnight and incubated with TSA in 96-well plates for 24 h. The next day, cells were singularized using Accutase™ (STEMCELL technologies), washed with PBS, centrifuged at 300 g for 5 minutes, and Ghost Dye™ Red 780 viability dye was added at 1:1000 concentration for 20 minutes at room temperature. Cells were then washed with PBS, spun down at 300g for 5 minutes, and resuspended in 300 μL of PBS. Cells were run on an Attune NxT™ flow cytometer (Thermo Fisher Scientific) and subsequent analysis was performed using Flowjo software (BD).
(§1) Flow cytometry and fluorescence activated cell sorting: Flow cytometry was performed on singularized iPSCs using Attune™ Nxt flow cytometer (ThermoFisher Scientific) and analyzed using the FlowJo Software. Ghost Dye™ Red 780, ATTO 550, and GFP fluorescence were detected using 780/60, 585/16, and 530/30 filters in […] positions, respectively. Gates were established by running singularized untransfected iPSCs. The percentage of viable cells was calculated as the ratio of Ghost Dye™ Red 780-cells to the total number of single cells. Transfection efficiency was calculated as the percentage of ATTO 550+ cells to the total number of viable cells on day 2 post-transfection. Gene editing efficiency was calculated as the percentage of GFP-cells to the total number of viable cells on day 6 post-transfection. For the sorting experiments, iPSCs were singularized 6 days post-transfection using Accutase™, washed with PBS+20 μM ROCK inhibitor, centrifuged at 300 g for 5 minutes. Ghost Dye™ Red 780 viability dye (Tonbo Biosciences) was then added at 1:1000 concentration for 20 minutes at room temperature. Cells were washed again with PBS+20 μM ROCK inhibitor, spun down at 300 g for 5 minutes, and resuspended in 300 μL of FACS buffer (PBS+2% BSA+20 μM ROCK inhibitor). GFP-cells were then sorted into tubes containing mTeSR1+20 μM ROCK inhibitor, and seeded onto Matrigel®-coated 6 well polystyrene plates at 100 cells/well to obtain single-cell iPSC clones.
(In flow cytometry, cells or beads pass a laser one at a time.)

For data set [2], the system named is iPSCs. Kind of data set: Single-cell ATAC sequencing, local chromatin accessibility. To be noted: upon TSA treatment, data not shown. On the procedure:
Briefly, 1,50,000 cells were added to a 2 mL microcentrifuge tube and centrifuged at 300 g for 45 min at 4° C. The supernatant was removed without disrupting the cell pellet, and 100 μL chilled Lysis Buffer (10 mM Tris-HCl (pH 7.4), 10 mM NaCl, 3 mM MgCl2, 0.1% Tween-20, 0.1% Nonidet® P40 Substitute, 0.01% digitonin and 1% BSA) was added and mixed 10 times. The microcentrifuge tube was then incubated on ice for 5 min. Following lysis, 1 ml chilled Wash Buffer (10 mM Tris-HCl (pH 7.4), 10 mM NaCl, 3 mM MgCl2, 0.1% Tween-20 and 1% BSA) was added and the resulting solution was mixed 5 times. Nuclei were centrifuged at 500 g for 5 min at 4° C. and the supernatant was removed without disrupting the nuclei pellet. Nuclei were resuspended in chilled Diluted Nuclei Buffer (10× Genomics; 2000153) at approximately 6,000 nuclei per μL. The resulting nuclei concentration was then determined with a Countess® II FL Automated Cell Counter using trypan blue inclusion. Nuclei were then immediately used to generate scATAC-seq libraries according to the Chromium Single Cell ATAC Reagent Kits User Guide v1.1 (10× Genomics; 000209 Rev D). Libraries were sequenced using the Illumina NovaSeq 6000 system using S1 flow cell and target depth of 30k-37k reads/nuclei. FASTQ files were aligned with Cellranger ATAC 2.0 to custom reference Human GRCh38 genome. […]

In a further data set the test system is HIST1H2BJ-GFP locus. Kind of data set: CRISPR-Cas9 gene editing efficiency by flow cytometry (GFP- cells). On the procedure: SpyCas9 RNP preparation: RNPs were produced by complexing a two-component gRNA to SpyCas9. In brief, tracr-RNA and crRNA were ordered from IDT, suspended in nuclease-free duplex buffer at 100 μM, and stored in single-use aliquots at −20° C. tracrRNA and crRNA were thawed, and 0.0625 μL of each component was mixed 1:1 by volume and annealed by incubation at room temperature for 5 minutes to form a 50 μM sgRNA solution for each well of a 96 well plate. Recombinant sNLS-SpCas9-sNLS Cas9 (Aldevron, 10 mg/mL) was added to the complexed gRNA at a 1:1 molar ratio (1000 ng/well, Total 0.1 μL) and incubated for 5 minutes at room temperature to form RNP.
RNP delivery: iPSCs were singularized using Accutase™ and counted using a Countess® II FL Automated Cell Counter (Thermo Fisher Scientific) with 0.4% Trypan Blue viability stain (Thermo Fisher Scientific). iPSCs were then seeded at 15,000 cells/well on 96 well glass bottom plates (Cellvis) in mTeSR1 (WiCell) and 10 μM ROCK inhibitor (Y27632, Selleckchem), two days before lipofection or electroporation. On the following day, iPSCs were treated with TSA (0-200 ng/mL) for 16-24 hours. iPSC lipofections were performed using 0.5 μL Lipofectamine Stem Cell Reagent/well (1000 ng Cas9/well and sgRNA at 1:1 molar ratio). Cells remained undisturbed for 48 hours and were then passaged 1:4 using ReLeSR™ solution followed by daily mTeSR1 media changes for 4 additional days before downstream analysis.
as §1
A simple, yet robust, workflow has been developed to introduce mutations in iPSCs without extensive use of deep sequencing (FIG. 1A). A mono-allelic mEGFP tagged HIST1H2BJWTC-11 human iPSC line (tag at C-terminus) was used as it provides two-fold advantages. […] Second, these iPSCs enable in situ live imaging of their cell nuclei to monitor chromatin changes during the process of CRISPR-Cas9 gene editing. An Alt-R® CRISPR-Cas9 2-part single guide RNA (sgRNA) system (IDT) was employed, which consists of 1) crRNA sequence to target the mEGFP locus in iPSCs (FIG. 1B), and 2) ATTO™ 550 fluorescent dye labelled tracrRNA that binds to Cas9. A range of TSA concentrations (0-200 ng/mL) were tested on iPSCs to determine the effect of TSA on cell viability. […] TSA concentrations of 0, 3.13, 6.25, and 12.5 ng/mL for further studies. Next, a range of TSA treatment durations (0-24 hours) were assessed and two methods for delivery for the Cas9 RNP complex (lipofection and electroporation) were also assessed to determine the optimal conditions for gene editing. […]

On to `CC(/C=C/C(=O)NO)=C\[C@@H](C)C(=O)c1ccc(N(C)C)cc1` [TSA, Trichostatin A], for which the Cell toxicity entry in the data set with iPSCs [1] (12.5 ng/mL TSA, FIG. 1E) is listed as “higher cell toxicity”. Also, the “Cell viability (% GhostDye- cells/total cells)” value with iPSCs [1] (TSA 0, 3.13, 6.25, 12.5 ng/mL, FIG. 1D) is reported as “decreases”. Also, the Cell viability result in the data set on iPSCs [1] (iPSCs, TSA 0-200 ng/mL, data not shown) is listed as “decreased with the increase in TSA concentration”. Besides, in the data set with iPSCs [1] (iPSCs, TSA range 0-200 ng/mL tested), the “TSA concentration with considerable decrease in cell viability” value is recorded as over 25 ng/mL. Moreover, in the data set with iPSCs [2], the “Local chromatin accessibility at the off-target sites” value was “no significant increase” and the “Local chromatin accessibility at the on-target sites” value is “increase”. Also, the “Gene editing efficiency (% GFP- cells/viable cells) upon TSA treatment” value with HIST1H2BJ-GFP locus (TSA 0-12.5 ng/mL, FIG. 1D) is recorded as “increases”. In addition, the “Increase in gene editing efficiency (% GFP- cells/viable cells)” value in the data set on HIST1H2BJ-GFP locus (TSA 6.25 ng/mL, day 6 after Cas9 RNP delivery) was 2-3 fold. In addition, the “Gene editing efficiency on additional increase of TSA concentration” value in the data set on HIST1H2BJ-GFP locus (TSA 12.5 ng/mL vs 6.25 ng/mL) is listed as “did not increase the editing efficiency further”. The “Increase in gene editing efficiency of iPSCs” value in the data set on HIST1H2BJ-GFP locus (chromatin decondensation via TSA, summary statement) is given as 2-3 fold. Further, in the data set on HIST1H2BJ-GFP locus (concentrations up to 6.25 ng/mL, day 6), the “Relation between gene editing efficiency (% GFP- cells/viable cells) and dose of TSA” value is “positive correlation”. Moreover, in the data set on HIST1H2BJ-GFP locus (durations 0-24 hours assessed, data not shown), the “TSA treatment duration yielding the highest gene editing efficiencies” value came out at 20 h.
